{
  "source": "patent US11992011B2",
  "about": "“Compounds for controlling plant pathogens” (VIB VZW, priority 2017, dated 2024)",
  "key": {"[1]": {"tested_on": "Arabidopsis thaliana seedlings", "details": "continuous exposure; Steenackers et al. 2016; cited from earlier work"}, "carrot": {"tested_on": "carrot", "assay": "Phytotoxicity of foliar spray in uninfected carrot (Example 1)", "format": "in vivo, Daucus carota", "details": "500 μM foliar spray, 8 plants per treatment", "protocol": "Carrot seeds, cv. Nantes 2 (Vreeken's Zaden, Dordrecht, the Netherlands) were germinated on wet paper for seven days at 21° C. After germination, seedlings were transferred to individual pots filled with potting soil and placed in a growth chamber at 21° C.\n(§1) Unless otherwise mentioned, all chemicals for nematode experiments were applied as a foliar spray consisting of the target compound at a concentration of 300 μM together with 0.1% (v/v) Tween 20 surfactant (Calbiochem) in distilled water. Again unless otherwise mentioned, all treatments for the nematode experiments were carried out three times: one and eight days before pathogen inoculation and seven days after pathogen inoculation. In all cases, plants were sprayed until run-off with an atomizer.\nShort-term phytotoxicity experiments (Example 1) were analyzed using non-parametric methods. For each variable, overall significance was determined using the Kruskal-Wallis test (Kruskal and Wallis, 1952), followed by a posthoc Conover-Iman test (Conover and Iman, 1981) with Hommel multiplicity correction (Hommel, 1988) if the Kruskal-Wallis test was significant. When only two groups were present, the Wilcoxon-Mann-Whitney test was used (Mann and Whitney, 1947).\nTo test whether C4H inhibitors induce phytotoxic effects in crops, uninfected tomato, wheat and carrot were treated with piperonylic acid (PA), 4-iodobenzoic acid (4-IBA) and piperic acid (PIA) at a concentration of 500 μM through foliar application. At harvest, leaf area (or shoot length in the case of wheat) and primary root length were recorded. The BBCH developmental stage (Lancashire et al., 1991), a measure of developmental retardation, was used to test for effects on development. Finally, the presence of visible signs of phytotoxicity such as chlorosis, discoloration or necrosis was recorded."}, "[2]": {"tested_on": "Pseudomonas syringae (pv. DC3000)", "assay": "Pseudomonas syringae infection experiment in tomato (Example 21)", "format": "in vivo", "details": "PA foliar spray", "protocol": "Tomato plants (Solanum lycopersicum cv. Moneymaker) were grown in potting soil as described in the plant materials section until the fourth leaf stage. Plants were treated with a piperonylic acid or control spray as described in the chemicals section. Twenty-four hours before inoculation, the tomato plants were placed in a sealed cloche to keep humidity at 100%.\nA glycerol stock of P. syringae pv. DC3000 kept at−80° C. was spotted on petri dishes containing King's B agar amended with 75 μg/ml rifampicine (Duchefa Biochemie, Haarlem, the Netherlands). The plates were incubated in the dark at 28° C. for one week. At this time point, glass test tubes containing 5 ml of liquid King's B each (without rifampicin) were inoculated with cells from the plates and placed on an orbital shaker at 200 rpm for 24 hours at 28° C. 100 μl of this liquid inoculum was transferred to fresh glass test tubes containing 5 ml of liquid King's B each (without rifampicin), which were placed on an orbital shaker at 200 rpm for 24 hours at 28° C.\nAt this time point, the liquid culture was diluted with fresh King's B medium to an OD of 1.0. This medium was then centrifuged at 3000 rpm for ten minutes; the supernatant was discarded and the cells were resuspended in 10 mM MgSO4 to an OD of 0.20. To this inoculum, 0.01 v/v % Silwet 77 surfactant was added.\nWhole tomato plants were inoculated by briefly dipping them in a beaker of the aforementioned inoculum. After dipping, plants were placed back in the sealed cloche for 12 hours. […]\nDue to the difference in disease progression, two different scoring systems were used. In the first experiment, the number of lesions per plant was counted three days after inoculation and the percentage of leaf area covered by lesions was quantified using the ImageJ software after seven days. In the second experiment, each fully developed leaf was scored on a disease scale between 0 and 4 as follows: 0=no visible symptoms; 1=isolated lesions; 2=large lesions, covering <50% of leaf area; 3=lesions covering more than half of the leaf area; 4=leaf irreversibly shriveled or abscised. […]"}, "Pratylenchus penetrans": {"tested_on": "Pratylenchus penetrans", "assay": "Pratylenchus penetrans infection in wheat cv. Sahara (Example 10)", "format": "in vivo", "details": "PA foliar spray", "protocol": "For Examples 1, 5 and 10, seeds of the winter wheat cultivar Sahara (Aveve Agrarisch, Landen, Belgium) were used. Seeds were washed in a 10% ethanol solution to remove any residual traces of fungicide and then germinated on wet paper at room temperature for four days; seeds were transferred to SAP tubes and placed in a growth chamber (25° C., 16 hours per day of light). Plants were watered with 8 ml of half-strength Hoagland solution every two days for the first ten days and with 8 ml of full strength Hoagland solution every two days afterwards.\nA pure culture of P. penetrans grown on carrot disks was kindly provided by Giuseppi Lucarelli (Horto Service, Noicattaro, Italy). The nematodes were multiplied by inoculating approximately 100 nematodes on a sterilized carrot disk, placing this disk in a sealed petri dish and incubating the dish at 24° C. for six weeks in the dark. Carrots were sterilized by washing and peeling them, then dipping them in ethanol and finally burning the ethanol off in a Bunsen burner.\nas §1\nInfection experiments with P. penetrans were performed by inoculating host plants 14 days after transfer to SAP by introducing 500 nematodes to their root system using a micro pipette. Plants were harvested 31 days after inoculation. At this point, the plants were phenotyped. Lesions were counted manually using a magnifying glass after washing and spreading open the root system. Nematodes were counted by macerating the root systems with a kitchen blender, placing a root system in 30 ml of autoclaved tap water for 24 hours and finally counting the number of nematodes in four 500 μl aliquots from each 30 ml root suspension under a binocular microscope."}, "Meloidogyne incognita": {"tested_on": "Meloidogyne incognita", "assay": "M. incognita infection in NahG-expressing tomato (Example 17)", "format": "in vivo", "protocol": "Infection experiments with M. incognita were performed in the same manner as those with M. graminicola, except that plants were harvested 31 days after inoculation instead of 14 days. At this point, the plants were phenotyped by measuring the root length with a ruler and in some experiments by measuring leaf area using the EasyLeafArea software (Easlon and Bloom, 2014) and by determining shoot dry mass after 72 hours of drying in an oven at 70° C. Galls were stained and counted as described above.\nTo evaluate this further, a tomato line deficient in salicylic acid biosynthesis and signaling respectively was treated with PA. […] If this line still responds to PA, it further strengthens the notion that salicylic acid accumulation is not the cause of C4H inhibitor-induced nematode resistance, for which evidence in rice was already provided in Example 16."}, "[3]": {"details": "infected wheat, mean ± SD, n = 8"}},
  "data": [
    {"smiles": "O=C(O)/C=C/c1ccc2c(c1)OCO2", "note": "[MDCA, 3,4-methylenedioxycinnamic acid]", "values": [
      {"measurement": "IC50", "setting": "[1]", "result": 5.07, "unit": "µM"}
    ]},
    {"smiles": "O=C(O)c1ccc2c(c1)OCO2", "note": "[PA, Piperonylic acid]", "values": [
      {"measurement": "Leaf Area", "setting": "carrot; mean ± standard deviation", "result": "6.07 ± 2.12", "unit": "cm^2"},
      {"measurement": "BBCH stage", "setting": "carrot; median ± interquartile range", "result": "13 ± 0"},
      {"measurement": "mean percentage of leaf area covered by lesions", "setting": "[2]; first experiment, after seven days", "result": "reduced"},
      {"measurement": "change of total number of lesions per plant", "setting": "[2]; first experiment, three days after inoculation, vs control", "result": "−25", "unit": "%"},
      {"measurement": "reduction of mean plant disease index", "setting": "[2]; second experiment, scale 0 to 4", "result": 20, "unit": "%"},
      {"measurement": "Number of lesions", "setting": "Pratylenchus penetrans; [3]", "result": "14.4 ± 6.8"},
      {"measurement": "Number of nematodes per root system", "setting": "Pratylenchus penetrans; [3]", "result": "165.6 ± 61.1"},
      {"measurement": "change of mean number of P. penetrans nematodes found in the root system", "setting": "Pratylenchus penetrans; wheat, vs control", "result": "−32", "unit": "%"},
      {"measurement": "change of mean number of root lesions in the host plant", "setting": "Pratylenchus penetrans; wheat, vs control", "result": "−39", "unit": "%"},
      {"measurement": "change of number of galls, PA-treated NahG plants vs untreated wild type plants", "setting": "Meloidogyne incognita; NahG-expressing (SA-deficient) tomato", "result": "−36", "unit": "%"},
      {"measurement": "difference in number of galls, PA-treated NahG plants vs PA-treated wild type plants", "setting": "Meloidogyne incognita; NahG-expressing tomato, not significant", "result": "+9%"}
    ]}
  ]
}
